Data on 5 molecules can be found in patent publication EP4810052A2, “HCRHR2 SELECTIVE POLYPEPTIDES” (Gubra A/S, priority 2023, dated 2026).

Like-named read-outs stand apart in the source and are kept apart here. Starred links: 1 amine or outer side, 2 acyl side, 3 side chain; linkers in the order of their positions; H or OH if unused. Non-standard residues stand in square brackets, D forms with d. Residues, ends and D or L forms follow the SMILES beside them. Groups on a side chain read outwards from the residue. *: point of attachment. C20 diacid = O=C(O)CCCCCCCCCCCCCCCCCCC(=O)*; γGlu = O=C(O)[C@H](CCC(=O)[*:2])N[*:1]; NMeI = CC[C@H](C)[C@H](NC)C(=O)O; Nle = CCCC[C@H](N)C(=O)O; AEEA = NCCOCCOCC(=O)O; Aib = CC(C)(N)C(=O)O

One test has as its target T1, hCRHR2 (Homo sapiens, UniProt Q13324).
T1 sequence (Q13324 1-411): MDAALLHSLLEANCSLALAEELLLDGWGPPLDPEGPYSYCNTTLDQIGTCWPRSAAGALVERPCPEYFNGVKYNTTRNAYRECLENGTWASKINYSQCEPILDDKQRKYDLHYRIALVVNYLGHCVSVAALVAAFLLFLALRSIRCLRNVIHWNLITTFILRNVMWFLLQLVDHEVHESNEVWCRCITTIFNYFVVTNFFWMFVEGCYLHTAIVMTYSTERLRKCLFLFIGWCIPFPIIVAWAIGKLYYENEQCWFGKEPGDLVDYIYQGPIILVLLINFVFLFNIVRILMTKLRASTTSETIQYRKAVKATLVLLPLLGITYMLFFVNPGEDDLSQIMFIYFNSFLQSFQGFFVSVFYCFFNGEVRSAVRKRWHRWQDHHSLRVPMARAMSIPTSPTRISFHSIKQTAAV
The experiment in a line: HTRF cAMP assay, determination of hCRHR2 potency (peptide libraries 5 conc., purified peptides 11 conc.). In kind it is cell-based. The method, boiled down: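 Agonist peptides are added to suspended, freshly thawed CHO-K1 cells that stably carry the human receptor. Intracellular cAMP competes with d2-cAMP for a cryptate-tagged antibody, lowering the FRET signal. A variable-slope sigmoid curve is fitted to obtain EC50.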
(In general: In TR-FRET formats the signal depends on donor and acceptor labels being close together.)

The target of the next test is T2, hCRHR1 (Homo sapiens, UniProt P34998).
T2 sequence (P34998 24-415): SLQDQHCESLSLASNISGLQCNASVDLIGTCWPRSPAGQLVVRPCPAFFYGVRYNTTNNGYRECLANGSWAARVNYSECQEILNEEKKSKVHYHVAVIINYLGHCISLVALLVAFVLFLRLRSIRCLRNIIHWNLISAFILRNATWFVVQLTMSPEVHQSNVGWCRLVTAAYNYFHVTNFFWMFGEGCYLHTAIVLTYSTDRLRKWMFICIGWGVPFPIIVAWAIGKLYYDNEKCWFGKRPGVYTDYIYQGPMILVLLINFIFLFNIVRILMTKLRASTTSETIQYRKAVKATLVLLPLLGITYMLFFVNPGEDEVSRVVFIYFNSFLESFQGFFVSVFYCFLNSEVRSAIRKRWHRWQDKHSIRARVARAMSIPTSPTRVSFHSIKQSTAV
The experiment in a line: HTRF cAMP assay, determination of hCRHR1 potency (peptide libraries 5 conc., purified peptides 11 conc.). In kind it is cell-based. The method, boiled down: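 CHO-K1 cells stably expressing human CRHR1, thawed from frozen stocks just before use, were stimulated in suspension with agonist peptides. cAMP was measured by HTRF competitive immunoassay (cryptate anti-cAMP antibody vs d2-cAMP).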

Where [1] appears, read: Table 3, matched molecular pairs X^38 L vs Nle, peptide library of Example 4, read-out: hCRHR2 pEC50 (converted).
The mark [2] stands for this setting: Table 3, matched molecular pairs X^38 L vs Nle, peptide library of Example 4, read-out: hCRHR1 pEC50 (converted).

Regarding `CC[C@H](C)[C@H](N)C(=O)N[C@H](C(=O)N[C@@H](CC(C)C)C(=O)N[C@@H](CO)C(=O)N[C@@H](CC(C)C)C(=O)N[C@@H](CC(=O)O)C(=O)N[C@H](C(=O)N1CCC[C@H]1C(=O)N[C@H](C(=O)NCC(=O)N[C@@H](CC(C)C)C(=O)N[C@@H](CC(C)C)C(=O)N[C@@H](CCC(N)=O)C(=O)N[C@H](C(=O)N[C@@H](CC(C)C)C(=O)N[C@@H](CC(C)C)C(=O)N[C@@H](CCC(=O)O)C(=O)N[C@@H](CCC(N)=O)C(=O)N[C@@H](C)C(=O)N[C@@H](CCCNC(=N)N)C(=O)N[C@@H](C)C(=O)N[C@@H](CCC(N)=O)C(=O)N[C@@H](C)C(=O)N[C@@H](C)C(=O)N[C@@H](CCCNC(=N)N)C(=O)N[C@@H](CCC(=O)O)C(=O)N[C@@H](CCC(N)=O)C(=O)N[C@@H](C)C(=O)N[C@@H](CCCCNC(=O)COCCOCCNC(=O)COCCOCCNC(=O)CC[C@H](NC(=O)CC[C@H](NC(=O)CCCCCCCCCCCCCCCCCCC(=O)O)C(=O)O)C(=O)O)C(=O)N[C@H](C(=O)N[C@@H](CC(N)=O)C(=O)N[C@@H](C)C(=O)N[C@@H](CCC(=O)O)C(=O)N[C@H](C(=O)N[C@@H](CC(C)C)C(=O)N[C@@H](C)C(=O)N[C@@H](CCC(=O)O)C(=O)N[C@H](C(N)=O)C(C)C)[C@@H](C)CC)[C@@H](C)O)[C@@H](C)CC)[C@@H](C)CC)C(C)C)C(C)C` [compound 62] (H-IVLSLDVPIGLLQILLEQARAQAAREQAK([AEEA-AEEA-γGlu-γGlu-C20 diacid])TNAEILAEV-NH2), the EC50 was 0.316 nM on hCRHR2 (library peptides, matched molecular pairs L vs Nle in position X^38, read-out: Potency hCRHR2 pEC50 (converted)) and 25100 nM at hCRHR1 (library peptides, matched molecular pairs L vs Nle in position X^38, read-out: Potency hCRHR1 pEC50 (converted)).

`CCCC[C@H](NC(=O)[C@@H](NC(=O)[C@H](CCC(=O)O)NC(=O)[C@H](C)NC(=O)[C@H](CC(N)=O)NC(=O)C(C)(C)NC(=O)[C@H](CCCCNC(=O)COCCOCCNC(=O)COCCOCCNC(=O)CC[C@H](NC(=O)CC[C@H](NC(=O)CCCCCCCCCCCCCCCCCCC(=O)O)C(=O)O)C(=O)O)NC(=O)[C@H](C)NC(=O)[C@H](CCC(N)=O)NC(=O)[C@H](CCC(=O)O)NC(=O)[C@H](CCCNC(=N)N)NC(=O)[C@H](C)NC(=O)[C@H](C)NC(=O)[C@H](CCCNC(=N)N)NC(=O)[C@H](C)NC(=O)[C@H](CCCNC(=N)N)NC(=O)[C@H](C)NC(=O)[C@H](CCC(N)=O)NC(=O)[C@H](CCCCN)NC(=O)[C@H](CC(C)C)NC(=O)[C@H](CC(C)C)NC(=O)[C@@H](NC(=O)[C@H](CCC(N)=O)NC(=O)[C@H](CC(C)C)NC(=O)[C@H](CC(C)C)NC(=O)CNC(=O)[C@@H](NC(=O)[C@@H]1CCCN1C(=O)[C@@H](NC(=O)[C@H](CC(=O)O)NC(=O)[C@H](CC(C)C)NC(=O)[C@H](CO)NC(=O)[C@H](CC(C)C)NC(=O)[C@@H](NC(=O)[C@@H](NC)[C@@H](C)CC)C(C)C)C(C)C)[C@@H](C)CC)[C@@H](C)CC)[C@@H](C)CC)C(=O)N[C@@H](C)C(=O)N[C@@H](CCC(=O)O)C(=O)N[C@H](C(N)=O)C(C)C` [compound 233] (H-[NMeI]VLSLDVPIGLLQILLKQARARAAREQAK([AEEA-AEEA-γGlu-γGlu-C20 diacid])[Aib]NAEI[Nle]AEV-NH2): the EC50 on hCRHR2 (Table 4, library peptides having X^38 = Nle, read-out: hCRHR2 pEC50 (converted)) is 0.0398 nM; at hCRHR1 (Table 4, library peptides having X^38 = Nle, read-out: hCRHR1 pEC50 (converted)), 3160 nM.

In the case of `CCCC[C@H](NC(=O)[C@@H](NC(=O)[C@H](CCC(=O)O)NC(=O)[C@H](C)NC(=O)[C@H](CC(N)=O)NC(=O)[C@@H](NC(=O)[C@H](CCCCNC(=O)COCCOCCNC(=O)COCCOCCNC(=O)CC[C@H](NC(=O)CC[C@H](NC(=O)CCCCCCCCCCCCCCCCCCC(=O)O)C(=O)O)C(=O)O)NC(=O)[C@H](C)NC(=O)[C@H](CCC(N)=O)NC(=O)[C@H](CCC(N)=O)NC(=O)[C@H](CCCNC(=N)N)NC(=O)[C@H](C)NC(=O)[C@H](C)NC(=O)[C@H](CCCNC(=N)N)NC(=O)[C@H](C)NC(=O)[C@H](CCCNC(=N)N)NC(=O)[C@H](C)NC(=O)[C@H](CCC(N)=O)NC(=O)[C@H](CCC(=O)O)NC(=O)[C@H](CC(C)C)NC(=O)[C@H](CC(C)C)NC(=O)[C@@H](NC(=O)[C@H](CCC(N)=O)NC(=O)[C@H](CC(C)C)NC(=O)[C@H](CC(C)C)NC(=O)CNC(=O)[C@@H](NC(=O)[C@@H]1CCCN1C(=O)[C@@H](NC(=O)[C@H](CC(=O)O)NC(=O)[C@H](CC(C)C)NC(=O)[C@H](CO)NC(=O)[C@H](CC(C)C)NC(=O)[C@@H](NC(=O)[C@@H](N)[C@@H](C)CC)C(C)C)C(C)C)[C@@H](C)CC)[C@@H](C)CC)[C@@H](C)O)[C@@H](C)CC)C(=O)N[C@@H](C)C(=O)N[C@@H](CCC(=O)O)C(=O)N[C@H](C(N)=O)[C@@H](C)CC` [SEQ ID NO: 28] (H-IVLSLDVPIGLLQILLEQARARAARQQAK([AEEA-AEEA-γGlu-γGlu-C20 diacid])TNAEI[Nle]AEI-NH2), the EC50 was 0.158 nM at hCRHR2 (setting [1]) and 1260 nM on hCRHR1 (setting [2]).

For the molecule `CC[C@H](C)[C@H](N)C(=O)N[C@H](C(=O)N[C@@H](CC(C)C)C(=O)N[C@@H](CO)C(=O)N[C@@H](CC(C)C)C(=O)N[C@@H](CC(=O)O)C(=O)N[C@H](C(=O)N1CCC[C@H]1C(=O)N[C@H](C(=O)NCC(=O)N[C@@H](CC(C)C)C(=O)N[C@@H](CC(C)C)C(=O)N[C@@H](CCC(N)=O)C(=O)N[C@H](C(=O)N[C@@H](CC(C)C)C(=O)N[C@@H](CC(C)C)C(=O)N[C@@H](CCC(=O)O)C(=O)N[C@@H](CCC(N)=O)C(=O)N[C@@H](C)C(=O)N[C@@H](CCCNC(=N)N)C(=O)N[C@@H](C)C(=O)N[C@@H](CCCNC(=N)N)C(=O)N[C@@H](C)C(=O)N[C@@H](CCC(N)=O)C(=O)N[C@@H](CCCNC(=N)N)C(=O)N[C@@H](CCC(=O)O)C(=O)N[C@@H](CCC(=O)O)C(=O)N[C@@H](C)C(=O)N[C@@H](CCCCNC(=O)COCCOCCNC(=O)COCCOCCNC(=O)CC[C@H](NC(=O)CC[C@H](NC(=O)CCCCCCCCCCCCCCCCCCC(=O)O)C(=O)O)C(=O)O)C(=O)N[C@H](C(=O)N[C@@H](CC(N)=O)C(=O)N[C@@H](C)C(=O)N[C@@H](CCC(=O)O)C(=O)N[C@H](C(=O)N[C@@H](CC(C)C)C(=O)N[C@@H](C)C(=O)N[C@@H](CCC(=O)O)C(=O)N[C@H](C(N)=O)C(C)C)[C@@H](C)CC)[C@@H](C)O)[C@@H](C)CC)[C@@H](C)CC)C(C)C)C(C)C` [SEQ ID NO: 33] (H-IVLSLDVPIGLLQILLEQARARAQREEAK([AEEA-AEEA-γGlu-γGlu-C20 diacid])TNAEILAEV-NH2), the EC50 at hCRHR2 (setting [1]) was 1.26 nM; on hCRHR1 (setting [2]) it was 126000 nM.

Regarding `CC[C@H](C)[C@H](N)C(=O)N[C@H](C(=O)N[C@@H](CC(C)C)C(=O)N[C@@H](CO)C(=O)N[C@@H](CC(C)C)C(=O)N[C@@H](CC(=O)O)C(=O)N[C@H](C(=O)N1CCC[C@H]1C(=O)N[C@H](C(=O)NCC(=O)N[C@@H](CC(C)C)C(=O)N[C@@H](CC(C)C)C(=O)N[C@@H](CCC(N)=O)C(=O)N[C@H](C(=O)N[C@@H](CC(C)C)C(=O)N[C@@H](CC(C)C)C(=O)N[C@@H](CCC(=O)O)C(=O)N[C@@H](CCC(N)=O)C(=O)N[C@@H](C)C(=O)N[C@@H](CCCNC(=N)N)C(=O)N[C@@H](C)C(=O)N[C@@H](CCC(=O)O)C(=O)N[C@@H](CO)C(=O)N[C@@H](C)C(=O)N[C@@H](CCCNC(=N)N)C(=O)N[C@@H](CCC(=O)O)C(=O)N[C@@H](CCC(N)=O)C(=O)N[C@@H](C)C(=O)N[C@@H](CCCCNC(=O)COCCOCCNC(=O)COCCOCCNC(=O)CC[C@H](NC(=O)CC[C@H](NC(=O)CCCCCCCCCCCCCCCCCCC(=O)O)C(=O)O)C(=O)O)C(=O)N[C@H](C(=O)N[C@@H](CC(N)=O)C(=O)N[C@@H](C)C(=O)N[C@@H](CCC(=O)O)C(=O)N[C@H](C(=O)N[C@@H](CC(C)C)C(=O)N[C@@H](C)C(=O)N[C@@H](CCC(=O)O)C(=O)N[C@H](C(N)=O)C(C)C)[C@@H](C)CC)[C@@H](C)O)[C@@H](C)CC)[C@@H](C)CC)C(C)C)C(C)C` [SEQ ID NO: 41] (H-IVLSLDVPIGLLQILLEQARAESAREQAK([AEEA-AEEA-γGlu-γGlu-C20 diacid])TNAEILAEV-NH2), the values for the EC50 on hCRHR2 (setting [1]) and on hCRHR1 (setting [2]) were 0.631 nM and 15800 nM, respectively.
